Source: patent US10246486B2, “Macrocyclic inhibitors of flaviviridae viruses” (Gilead Sciences, Inc., priority 2012, dated 2019)
Read-outs that look alike come from different tables or passages of the source.

How the values were obtained:
[1] = rcm bond, Hoveyda-Grubbs 2nd generation catalyst
[2] = system: HCV replicon 1a (human hepatoma Huh-7 cell line harboring a HCV replicon); experiment: microbe, parasite or virus in culture; format: cell-based

In the case of `CO[C@@H]1C=Cc2cc3cc(ccc3cn2)[C@@H](C)NC(=O)[C@@H]2CCCN(N2)C(=O)[C@H](C)NC(=O)[C@H](C(C)C)NC(=O)[C@@H]1C`, the ring closure, yield of all isomers ([1]; from C=Cc1cc2cc([C@@H](C)NC(=O)[C@@H]3CCCN(C(=O)[C@H](C)NC(=O)[C@@H](NC(=O)[C@H](C)[C@@H](/C=C/C)OC)C(C)C)N3)ccc2cn1, toluene, 3.33 mM, 110.0 °C, 8.0 h) is reported as 26%.
In the case of `CC(C)[C@@H]1NC(=O)CC=Cc2cc3cc(ccc3cn2)[C@@H](C(F)(F)F)NC(=O)[C@@H]2CCCN(N2)C(=O)[C@H](C)NC1=O`, the ring closure, yield of all isomers ([1]; from C=CCC(=O)N[C@H](C(=O)N[C@@H](C)C(=O)N1CCC[C@@H](C(=O)N[C@@H](c2ccc3cnc(C=C)cc3c2)C(F)(F)F)N1)C(C)C, toluene, 3.04 mM, 120.0 °C, 2.83 h) is reported as 3%.
With `CC(C)[C@@H]1NC(=O)[C@H](C)CC=CCOc2ccc(F)c(c2)[C@@H](C)OC(=O)[C@@H]2CCCN(N2)C(=O)[C@H](C)NC1=O` the ring closure, yield of all isomers ([1]; from C=CCOc1ccc(F)c([C@@H](C)OC(=O)[C@@H]2CCCN(C(=O)[C@H](C)NC(=O)[C@@H](NC(=O)[C@H](C)CC=C)C(C)C)N2)c1, 1,2-dichloroethane, 3.0 mM, 83.0 °C, 2.0 h) was 20%.
For `CO[C@@H]1CCC=Cc2ccc3c(c2)[C@@H](CC3)N(C)C(=O)[C@@H]2CCCN(N2)C(=O)[C@H](C)NC(=O)[C@H](C(C)C)NC(=O)[C@@H]1C`, the ring closure, yield of all isomers ([1]; from C=CCC[C@@H](OC)[C@@H](C)C(=O)N[C@H](C(=O)N[C@@H](C)C(=O)N1CCC[C@@H](C(=O)N(C)[C@@H]2CCc3ccc(C=C)cc32)N1)C(C)C, 1,2-dichloroethane, 3.9 mM, 83.0 °C, 1.5 h) was 5%.
Molecule `CO[C@@H]1C=Cc2cc3cc(ccc3cn2)[C@@H](C)OC(=O)C2(C)CCCN(N2)C(=O)[C@H](C)NC(=O)[C@H](C(C)C)NC(=O)[C@@H]1C` (stereo partly shown) has a ring closure, yield of all isomers ([1]; from C=Cc1cc2cc([C@@H](C)OC(=O)C3(C)CCCN(C(=O)[C@H](C)NC(=O)[C@@H](NC(=O)[C@H](C)[C@@H](/C=C/C)OC)C(C)C)N3)ccc2cn1, toluene, 3.06 mM, 111.0 °C, 3.5 h) of 21%.
For `CC(C)[C@@H]1NC(=O)CCC(C)(C)CC=Cc2cccc(c2)[C@@H](C)NC(=O)[C@@H]2CCCN(N2)C(=O)[C@H](C)NC1=O`, the ring closure, yield of all isomers ([1]; from C=CCC(C)(C)CCC(=O)N[C@H](C(=O)N[C@@H](C)C(=O)N1CCC[C@@H](C(=O)N[C@H](C)c2cccc(C=C)c2)N1)C(C)C, 1,2-dichloroethane, 3.38 mM, 80.0 °C, 1.0 h) was 8%.
Molecule `CC(C)[C@@H]1NC(=O)[C@H](C)CC=Cc2cc3cc(ccc3cn2)[C@@H](C)OC(=O)[C@@H]2CCCN(N2)C(=O)[C@H](C)NC1=O` has a ring closure, yield of all isomers ([1]; from C=CC[C@@H](C)C(=O)N[C@H](C(=O)N[C@@H](C)C(=O)N1CCC[C@@H](C(=O)O[C@H](C)c2ccc3cnc(C=C)cc3c2)N1)C(C)C, toluene, 3.0 mM, 120.0 °C, 3.0 h) of 22%.
Molecule `CC(C)[C@@H]1NC(=O)CC=Cc2cc3cc(ccc3cn2)[C@@H](C)OC(=O)[C@@H]2CCCN(N2)C(=O)[C@H](C)NC1=O` has a ring closure, yield of all isomers ([1]; from C=Cc1cc2cc([C@@H](C)OC(=O)[C@@H]3CCCN(C(=O)[C@H](C)NC(=O)[C@@H](NC(=O)C/C=C/C)C(C)C)N3)ccc2cn1, toluene, 3.33 mM, 110.0 °C, 1.0 h) of 23.5%.
`C[C@@H]1NC(=O)[C@H](C2CCCCC2)NC(=O)CC=Cc2cc3cc(ccc3cn2)[C@@H](C)OC(=O)[C@@H]2CCCN(N2)C1=O` gave a ring closure, yield of all isomers ([1]; from C=Cc1cc2cc([C@@H](C)OC(=O)[C@@H]3CCCN(C(=O)[C@H](C)NC(=O)[C@@H](NC(=O)C/C=C/C)C4CCCCC4)N3)ccc2cn1, toluene, 5.0 mM, 110.0 °C, 2.0 h) of 7%.
`CC(C)[C@@H]1NC(=O)CC=Cc2cc3cc(ccc3cn2)[C@@H](C)NC(=O)[C@@H]2CCCN(N2)C(=O)[C@H](C)NC1=O` gave a ring closure, yield of all isomers ([1]; from C=CCC(=O)N[C@H](C(=O)N[C@@H](C)C(=O)N1CCC[C@@H](C(=O)N[C@H](C)c2ccc3cnc(C=C)cc3c2)N1)C(C)C, toluene, 3.86 mM, 111.0 °C, 3.0 h) of 2.2%.
For `C[C@@H]1NC(=O)[C@H](CCn2ccnn2)NC(=O)C(C)(C)/C=C/c2cc3cc(ccc3cn2)[C@@H](C)OC(=O)[C@@H]2CCCN(N2)C1=O` [Example 50], the “Replicon 1a % inhibition at 1 μm” value [2] was 12%.
For `CC(C)[C@@H]1NC(=O)CCCC=Cc2cc3cc(ccc3cn2)[C@@H](C)OC(=O)[C@@H]2CCCN(N2)C(=O)[C@H](C)NC1=O`, the ring closure, yield of all isomers ([1]; from C=CCCCC(=O)N[C@H](C(=O)N[C@@H](C)C(=O)N1CCC[C@@H](C(=O)O[C@H](C)c2ccc3cnc(C=C)cc3c2)N1)C(C)C, toluene, 2.41 mM, 111.0 °C, 0.5 h) was 63%.
For `CC(C)[C@@H]1NC(=O)CCCCC=Cc2cc3cc(ccc3cn2)[C@@H](C)OC(=O)[C@@H]2CCCN(N2)C(=O)[C@H](C)NC1=O`, the ring closure, yield of all isomers ([1]; from C=CCCCCC(=O)N[C@H](C(=O)N[C@@H](C)C(=O)N1CCC[C@@H](C(=O)O[C@H](C)c2ccc3cnc(C=C)cc3c2)N1)C(C)C, toluene, 2.16 mM, 111.0 °C, 0.5 h) was 31%.
`CC(C)[C@@H]1NC(=O)CC=Cc2ccc3ccc(cc3n2)[C@@H](C)OC(=O)[C@@H]2CCCN(N2)C(=O)[C@H](C)NC1=O` showed a ring closure, yield of all isomers ([1]; from C=CCC(=O)N[C@H](C(=O)N[C@@H](C)C(=O)N1CCC[C@@H](C(=O)O[C@H](C)c2ccc3ccc(C=C)nc3c2)N1)C(C)C, 1,2-dichloroethane, 18.2 mM, 100.0 °C, 1.0 h) of 3%.
`CC[C@@H]1C=Cc2cc3cc(ccc3cn2)[C@@H](C)OC(=O)[C@@H]2CCCN(N2)C(=O)[C@H](C)NC(=O)[C@H](C(C)C)NC1=O` gave a ring closure, yield of all isomers ([1]; from C=Cc1cc2cc([C@@H](C)OC(=O)[C@@H]3CCCN(C(=O)[C@H](C)NC(=O)[C@@H](NC(=O)[C@@H](/C=C/C)CC)C(C)C)N3)ccc2cn1, toluene, 3.0 mM, 120.0 °C, 4.0 h) of 1%.
Work on `C[C@@H]1NC(=O)[C@H](Cc2ccccc2)NC(=O)CC=Cc2cc3cc(ccc3cn2)[C@@H](C)OC(=O)[C@@H]2CCCN(N2)C1=O` yielded a ring closure, yield of all isomers ([1]; from C=Cc1cc2cc([C@@H](C)OC(=O)[C@@H]3CCCN(C(=O)[C@H](C)NC(=O)[C@H](Cc4ccccc4)NC(=O)C/C=C/C)N3)ccc2cn1, chlorobenzene, 4.96 mM, 110.0 °C, 3.0 h) of 12%.
For `C[C@@H]1NC(=O)[C@H](CO[Si](C)(C)C(C)(C)C)NC(=O)CC=Cc2cc3cc(ccc3cn2)[C@@H](C)OC(=O)[C@@H]2CCCN(N2)C1=O`, the ring closure, yield of all isomers ([1]; from C=Cc1cc2cc([C@@H](C)OC(=O)[C@@H]3CCCN(C(=O)[C@H](C)NC(=O)[C@H](CO[Si](C)(C)C(C)(C)C)NC(=O)C/C=C/C)N3)ccc2cn1, toluene, 2.98 mM, 105.0 °C, 0.58 h) was 38%.
In the case of `CC(C)[C@@H]1NC(=O)[C@H](C)[C@H](O[Si](C)(C)C(C)(C)C)CCC=Cc2cccc(c2)[C@@H](C)NC(=O)[C@@H]2CCCN(N2)C(=O)[C@H](C)NC1=O`, the ring closure, yield of all isomers ([1]; from C=CCC[C@@H](O[Si](C)(C)C(C)(C)C)[C@@H](C)C(=O)N[C@H](C(=O)N[C@@H](C)C(=O)N1CCC[C@@H](C(=O)N[C@H](C)c2cccc(C=C)c2)N1)C(C)C, 1,2-dichloroethane, 2.8 mM, 80.0 °C, 1.0 h) is reported as 43%.
In the case of `C[C@@H]1NC(=O)[C@H]([C@@H](C)O[Si](C)(C)C(C)(C)C)NC(=O)CC=Cc2cc3cc(ccc3cn2)[C@@H](C)OC(=O)[C@@H]2CCCN(N2)C1=O`, the ring closure, yield of all isomers ([1]; from C=Cc1cc2cc([C@@H](C)OC(=O)[C@@H]3CCCN(C(=O)[C@H](C)NC(=O)[C@@H](NC(=O)C/C=C/C)[C@@H](C)O[Si](C)(C)C(C)(C)C)N3)ccc2cn1, toluene, 2.94 mM, 105.0 °C, 1.0 h) is reported as 42%.
With `CC1C=Cc2cc3cc(ccc3cn2)[C@@H](C)OC(=O)[C@@H]2CCCN(N2)C(=O)[C@H](C)NC(=O)[C@H](C(C)C)NC1=O` (stereo partly shown) the ring closure, yield of all isomers ([1]; from C=Cc1cc2cc([C@@H](C)OC(=O)[C@@H]3CCCN(C(=O)[C@H](C)NC(=O)[C@@H](NC(=O)C(C)C=C)C(C)C)N3)ccc2cn1, toluene, 2.6 mM, 111.0 °C, 3.0 h) was 1%.
`CO[C@@H]1CCC=Cc2cccc(c2)C2CCCCN2C(=O)[C@@H]2CCCN(N2)C(=O)[C@H](C)NC(=O)[C@H](C(C)C)NC(=O)[C@@H]1C` (stereo partly shown) gave a ring closure, yield of all isomers ([1]; from C=CCC[C@@H](OC)[C@@H](C)C(=O)N[C@H](C(=O)N[C@@H](C)C(=O)N1CCC[C@@H](C(=O)N2CCCCC2c2cccc(C=C)c2)N1)C(C)C, 1,2-dichloroethane, 3.05 mM, 84.0 °C, 2.5 h) of 18%.
`C[C@@H]1NC(=O)[C@H](CCc2ccccc2)NC(=O)CC=Cc2cc3cc(ccc3cn2)[C@@H](C)OC(=O)[C@@H]2CCCN(N2)C1=O` showed a ring closure, yield of all isomers ([1]; from C=Cc1cc2cc([C@@H](C)OC(=O)[C@@H]3CCCN(C(=O)[C@H](C)NC(=O)[C@H](CCc4ccccc4)NC(=O)C/C=C/C)N3)ccc2cn1, chlorobenzene, 4.81 mM, 110.0 °C, 3.5 h) of 12%.
